Test results from patent publication US8901118B2, “Compounds and methods for kinase modulation, and indications therefor” (Plexxikon Inc., priority 2010, dated 2014).

Legend:
CYP3A4(BQ) = CYP3A4(BQ) (Homo sapiens, UniProt P08684); assay: CYP3A4(BQ) inhibition; format: in vitro ADME; details: CYP3A4, substrate BQ; read-out: Cyp IC50 3A4(BQ)
In short: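 Inhibition of human CYP3A4 (BQ substrate) was measured by fluorescence, since blocking metabolism of a known substrate lowers the fluorescent product signal. Compounds dissolved in DMSO at 100 mM were diluted into acetonitrile and then into NADPH regeneration cofactor mix, serially diluted 1:1 across 10 points, and preincubated in 384 well plates for 10 minutes at 37° C.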

CYP2C9 = CYP2C9 (Homo sapiens, UniProt P11712); assay: CYP2C9 inhibition (fluorescent substrate MFC); format: in vitro ADME; details: read-out: Cyp IC50 2C9
In short: (§1)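 Inhibition is measured as the drop in fluorescent metabolite formation across a 10-point compound titration with NADPH regeneration at 37 °C. Incubation lasts 15 min for CYP1A2, 45 min for CYP2C9 and 30 min for CYP2C19 and CYP2D6.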

BCR-NTRK3 BaF3 cells = biological target: T1, BCR-NTRK3 BaF3 cells (Homo sapiens, UniProt Q16288); assay: BaF3 BCR-NTRK3 cell proliferation assay (ATPlite); format: cell-based; details: read-out: Inhibition of Cell Proliferation IC50, BCR/BaF3 TrkC
T1 construct: fused on or other part: P11274 (Breakpoint cluster region protein)
In short: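 BaF3 cells expressing BCR fusions were plated at 10,000 cells/well without IL-3, and MV-4-11 cells at 25,000 cells/well. Cells were treated the next day with an 8-point 1:3 dilution series (top 10 μM final) and incubated 3 days at 37 °C. ATPlite luminescence gave cell number, from which IC50 was fitted.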

CYP2D6 = CYP2D6 (Homo sapiens, UniProt P10635); assay: CYP2D6 inhibition (fluorescent substrate AMMC); format: in vitro ADME; details: read-out: Cyp IC50 2D6
In short: as §1

Sequence of CYP3A4(BQ) (P08684 whole entry): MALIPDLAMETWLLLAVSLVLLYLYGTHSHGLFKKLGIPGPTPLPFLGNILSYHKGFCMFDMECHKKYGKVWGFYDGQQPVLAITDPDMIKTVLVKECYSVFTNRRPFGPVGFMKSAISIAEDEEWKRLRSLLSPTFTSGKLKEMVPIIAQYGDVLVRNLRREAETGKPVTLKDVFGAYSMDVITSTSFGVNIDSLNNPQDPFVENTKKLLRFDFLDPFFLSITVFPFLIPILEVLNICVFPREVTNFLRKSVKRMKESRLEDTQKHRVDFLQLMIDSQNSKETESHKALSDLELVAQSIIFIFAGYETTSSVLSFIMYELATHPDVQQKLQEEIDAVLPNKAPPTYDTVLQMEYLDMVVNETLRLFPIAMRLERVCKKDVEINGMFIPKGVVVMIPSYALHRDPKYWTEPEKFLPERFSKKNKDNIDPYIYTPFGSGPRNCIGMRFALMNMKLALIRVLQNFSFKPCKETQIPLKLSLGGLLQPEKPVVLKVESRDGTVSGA
Sequence of CYP2D6 (P10635 whole entry): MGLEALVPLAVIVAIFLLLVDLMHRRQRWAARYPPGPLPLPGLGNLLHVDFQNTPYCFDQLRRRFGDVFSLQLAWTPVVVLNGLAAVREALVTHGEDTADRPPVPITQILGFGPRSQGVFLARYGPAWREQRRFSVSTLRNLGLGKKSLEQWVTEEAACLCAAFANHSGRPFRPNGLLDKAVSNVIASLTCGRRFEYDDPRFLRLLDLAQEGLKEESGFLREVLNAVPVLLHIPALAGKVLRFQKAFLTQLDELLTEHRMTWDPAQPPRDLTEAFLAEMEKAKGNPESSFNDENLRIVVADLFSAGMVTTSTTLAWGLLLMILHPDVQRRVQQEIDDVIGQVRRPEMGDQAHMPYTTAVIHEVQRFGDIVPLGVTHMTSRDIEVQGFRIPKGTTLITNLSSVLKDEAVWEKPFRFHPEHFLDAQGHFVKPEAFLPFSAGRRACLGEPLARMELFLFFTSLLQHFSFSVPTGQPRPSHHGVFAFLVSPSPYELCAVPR
T1 sequence (Q16288 whole entry, the tested form may be a part): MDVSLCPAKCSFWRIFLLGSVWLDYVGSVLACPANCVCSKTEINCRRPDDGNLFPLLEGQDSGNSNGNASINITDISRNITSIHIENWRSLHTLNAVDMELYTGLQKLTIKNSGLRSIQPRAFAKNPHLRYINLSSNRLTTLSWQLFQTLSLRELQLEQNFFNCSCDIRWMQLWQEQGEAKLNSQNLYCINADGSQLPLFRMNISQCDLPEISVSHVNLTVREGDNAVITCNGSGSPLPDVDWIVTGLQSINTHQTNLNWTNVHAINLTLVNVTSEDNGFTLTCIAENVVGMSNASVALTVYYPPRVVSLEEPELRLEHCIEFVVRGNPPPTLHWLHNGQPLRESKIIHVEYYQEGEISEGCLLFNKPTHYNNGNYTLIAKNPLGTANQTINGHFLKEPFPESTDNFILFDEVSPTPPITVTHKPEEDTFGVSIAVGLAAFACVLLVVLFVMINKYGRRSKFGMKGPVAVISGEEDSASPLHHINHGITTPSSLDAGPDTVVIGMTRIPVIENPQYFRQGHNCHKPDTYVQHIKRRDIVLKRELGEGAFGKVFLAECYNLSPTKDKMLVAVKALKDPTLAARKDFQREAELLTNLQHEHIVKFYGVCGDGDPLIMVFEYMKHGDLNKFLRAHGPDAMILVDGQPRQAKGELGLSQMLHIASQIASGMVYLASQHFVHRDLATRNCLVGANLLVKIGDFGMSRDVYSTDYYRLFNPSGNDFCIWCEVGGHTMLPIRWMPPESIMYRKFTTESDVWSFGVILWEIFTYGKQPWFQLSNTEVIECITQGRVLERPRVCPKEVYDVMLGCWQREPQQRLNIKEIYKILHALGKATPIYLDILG
Sequence of CYP2C9 (P11712 whole entry): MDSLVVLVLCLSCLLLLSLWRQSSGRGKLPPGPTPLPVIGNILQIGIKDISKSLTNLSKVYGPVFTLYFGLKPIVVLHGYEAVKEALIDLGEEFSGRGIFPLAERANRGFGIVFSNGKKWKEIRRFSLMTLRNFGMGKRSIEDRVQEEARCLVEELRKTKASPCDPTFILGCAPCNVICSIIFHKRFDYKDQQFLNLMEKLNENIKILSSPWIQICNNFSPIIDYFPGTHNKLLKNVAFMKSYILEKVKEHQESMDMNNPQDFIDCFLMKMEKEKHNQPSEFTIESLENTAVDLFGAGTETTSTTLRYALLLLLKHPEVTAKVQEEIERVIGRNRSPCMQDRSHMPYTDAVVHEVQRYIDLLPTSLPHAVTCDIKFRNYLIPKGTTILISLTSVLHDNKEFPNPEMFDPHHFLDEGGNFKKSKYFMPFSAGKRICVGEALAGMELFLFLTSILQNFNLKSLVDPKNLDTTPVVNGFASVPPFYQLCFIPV

Structure (SMILES)	IC50 (CYP3A4(BQ)) [µM]	IC50 (CYP2C9) [µM]	IC50 (BCR-NTRK3 BaF3 cells) [µM]	IC50 (CYP2D6) [µM]
COCCCNc1ncnc2[nH]cc(C(=O)c3ccc(Nc4ccc(OC)nc4)nc3F)c12 [Compound P-4079, [2-fluoro-6-[(6-methoxy-3-pyridyl)amino]-3-pyridyl]-[4-(3-methoxypropylamino)-7H-pyrrolo[2,3-d]pyrimidin-5-yl]methanone]	> 10	> 10	< 0.01	> 10
CCCCNc1ncnc2[nH]cc(C(=O)c3ccc(Nc4ccc(OC)nc4)nc3F)c12 [Compound P-4080, [4-(butylamino)-7H-pyrrolo[2,3-d]pyrimidin-5-yl]-[2-fluoro-6-[(6-methoxy-3-pyridyl)amino]-3-pyridyl]methanone]	> 10	> 10	< 0.01	> 10
CCNc1ncnc2[nH]cc(C(=O)c3ccc(Nc4ccc(OC)nc4)nc3F)c12 [Compound P-4081, [4-(ethylamino)-7H-pyrrolo[2,3-d]pyrimidin-5-yl]-[2-fluoro-6-[(6-methoxy-3-pyridyl)amino]-3-pyridyl]methanone]	> 10	> 10	< 0.01	> 10
COc1ccc(Nc2ccc(C(=O)c3c[nH]c4ncnc(NC5CCCCC5)c34)c(F)n2)cn1 [Compound P-4082, [4-(cyclohexylamino)-7H-pyrrolo[2,3-d]pyrimidin-5-yl]-[2-fluoro-6-[(6-methoxy-3-pyridyl)amino]-3-pyridyl]methanone]	5 to 10	> 10	< 0.01	> 10
CNc1ncnc2[nH]cc(C(=O)c3ccc(Nc4ccc(OC)nc4)nc3F)c12 [Compound P-4083, [2-fluoro-6-[(6-methoxy-3-pyridyl)amino]-3-pyridyl]-[4-(methylamino)-7H-pyrrolo[2,3-d]pyrimidin-5-yl]methanone]	> 10	> 10	< 0.01	> 10
COc1ccc(Nc2ccc(C(=O)c3c[nH]c4ncnc(NCC(F)(F)F)c34)c(F)n2)cn1 [Compound P-4084, [2-fluoro-6-[(6-methoxy-3-pyridyl)amino]-3-pyridyl]-[4-(2,2,2-trifluoroethylamino)-7H-pyrrolo[2,3-d]pyrimidin-5-yl]methanone]	> 10	> 10	< 0.01	> 10
O=C(c1ccc(NC2CCC(F)(F)CC2)nc1)c1c[nH]c2ncnc(NCC(F)(F)F)c12 [Compound P-4087, [6-[(4,4-difluorocyclohexyl)amino]-3-pyridyl]-[4-(2,2,2-trifluoroethylamino)-7H-pyrrolo[2,3-d]pyrimidin-5-yl]methanone]	> 10	> 10	< 0.01	> 10
O=C(c1ccc(NC2CCC(F)(F)CC2)nc1)c1c[nH]c2ncnc(NC3CC3)c12 [Compound P-4088, [4-(cyclopropylamino)-7H-pyrrolo[2,3-d]pyrimidin-5-yl]-[6-[(4,4-difluorocyclohexyl)amino]-3-pyridyl]methanone]	> 10	> 10	< 0.01	> 10
CNc1ncnc2[nH]cc(C(=O)c3ccc(NC4CCC(F)(F)CC4)nc3)c12 [Compound P-4089, [6-[(4,4-difluorocyclohexyl)amino]-3-pyridyl]-[4-(methylamino)-7H-pyrrolo[2,3-d]pyrimidin-5-yl]methanone]	> 10	> 10	< 0.01	> 10
O=C(c1ccc(Nc2ccc(C3CC3)nc2)nc1F)c1c[nH]c2ncnc(NCC(F)(F)F)c12 [Compound P-4090, [6-[(6-cyclopropyl-3-pyridyl)amino]-2-fluoro-3-pyridyl]-[4-(2,2,2-trifluoroethylamino)-7H-pyrrolo[2,3-d]pyrimidin-5-yl]methanone]	> 10	> 10	< 0.01	> 10
O=C(c1ccc(Nc2ccc(C(F)(F)F)nc2)nc1F)c1c[nH]c2ncnc(NC3CC3)c12 [Compound P-4091, [4-(cyclopropylamino)-7H-pyrrolo[2,3-d]pyrimidin-5-yl]-[2-fluoro-6-[[6-(trifluoromethyl)-3-pyridyl]amino]-3-pyridyl]methanone]	> 10	> 10	< 0.01	> 10
CNc1ncnc2[nH]cc(C(=O)c3ccc(Nc4ccc(C(F)(F)F)nc4)nc3F)c12 [Compound P-4092, [2-fluoro-6-[[6-(trifluoromethyl)-3-pyridyl]amino]-3-pyridyl]-[4-(methylamino)-7H-pyrrolo[2,3-d]pyrimidin-5-yl]methanone]	> 10	< 5	< 0.01	< 5
O=C(c1ccc(Nc2ccc(C3CC3)nc2)nc1F)c1c[nH]c2ncnc(NC3CC3)c12 [Compound P-4093, [4-(cyclopropylamino)-7H-pyrrolo[2,3-d]pyrimidin-5-yl]-[6-[(6-cyclopropyl-3-pyridyl)amino]-2-fluoro-3-pyridyl]methanone]	> 10	> 10	< 0.01	> 10
CNc1ncnc2[nH]cc(C(=O)c3ccc(Nc4ccc(C5CC5)nc4)nc3F)c12 [Compound P-4094, [6-[(6-cyclopropyl-3-pyridyl)amino]-2-fluoro-3-pyridyl]-[4-(methylamino)-7H-pyrrolo[2,3-d]pyrimidin-5-yl]methanone]	> 10	< 5	< 0.01	< 5
CCc1ccc(Nc2ccc(C(=O)c3c[nH]c4ncnc(NC5CCC5)c34)c(F)n2)cn1 [Compound P-4095, [4-(cyclobutylamino)-7H-pyrrolo[2,3-d]pyrimidin-5-yl]-[6-[(6-ethyl-3-pyridyl)amino]-2-fluoro-3-pyridyl]methanone]	> 10	> 10	< 0.01	> 10
COc1cncc(Nc2ccc(C(=O)c3c[nH]c4ncnc(NCC(F)(F)F)c34)c(F)n2)c1 [Compound P-4103, [2-fluoro-6-[(5-methoxy-3-pyridyl)amino]-3-pyridyl]-[4-(2,2,2-trifluoroethylamino)-7H-pyrrolo[2,3-d]pyrimidin-5-yl]methanone]	> 10	> 10	> 1	> 10
COc1cncc(Nc2ccc(C(=O)c3c[nH]c4ncnc(NC5CCCCC5)c34)c(F)n2)c1 [Compound P-4104, [4-(cyclohexylamino)-7H-pyrrolo[2,3-d]pyrimidin-5-yl]-[2-fluoro-6-[(5-methoxy-3-pyridyl)amino]-3-pyridyl]methanone]	> 10	> 10	< 0.1	> 10
CCCNc1ncnc2[nH]cc(C(=O)c3ccc(Nc4cncc(OC)c4)nc3F)c12 [Compound P-4105, [2-fluoro-6-[(5-methoxy-3-pyridyl)amino]-3-pyridyl]-[4-(propylamino)-7H-pyrrolo[2,3-d]pyrimidin-5-yl]methanone]	> 10	> 10	< 1	> 10
COc1cncc(Nc2ccc(C(=O)c3c[nH]c4ncnc(NC(C)C)c34)c(F)n2)c1 [Compound P-4106, [2-fluoro-6-[(5-methoxy-3-pyridyl)amino]-3-pyridyl]-[4-(isopropylamino)-7H-pyrrolo[2,3-d]pyrimidin-5-yl]methanone]	> 10	< 5	< 0.01	< 5
COc1cncc(Nc2ccc(C(=O)c3c[nH]c4ncnc(NC5CC5)c34)c(F)n2)c1 [Compound P-4107, [4-(cyclopropylamino)-7H-pyrrolo[2,3-d]pyrimidin-5-yl]-[2-fluoro-6-[(5-methoxy-3-pyridyl)amino]-3-pyridyl]methanone]	> 10	< 5	< 0.01	< 5
CNc1ncnc2[nH]cc(C(=O)c3ccc(Nc4cncc(OC)c4)nc3F)c12 [Compound P-4108, [2-fluoro-6-[(5-methoxy-3-pyridyl)amino]-3-pyridyl]-[4-(methylamino)-7H-pyrrolo[2,3-d]pyrimidin-5-yl]methanone]	> 10	< 5	< 0.1	< 5
Cc1ccc(Nc2ccc(C(=O)c3c[nH]c4ncnc(NC5CCCCC5)c34)c(F)n2)cn1 [Compound P-4111, [4-(cyclohexylamino)-7H-pyrrolo[2,3-d]pyrimidin-5-yl]-[2-fluoro-6-[(6-methyl-3-pyridyl)amino]-3-pyridyl]methanone]	5 to 10	5 to 10	< 0.01	> 10
Cc1ccc(Nc2ccc(C(=O)c3c[nH]c4ncnc(NCC(F)(F)F)c34)c(F)n2)cn1 [Compound P-4112, [2-fluoro-6-[(6-methyl-3-pyridyl)amino]-3-pyridyl]-[4-(2,2,2-trifluoroethylamino)-7H-pyrrolo[2,3-d]pyrimidin-5-yl]methanone]	> 10	< 5	< 0.01	< 5
